Data as given in patent US20080255090A1, “Ceratamines A and B, and Analogues, Syntheses and Pharmaceutical Compositions Thereof” (THE UNIVERSITY OF BRITISH COLUMBIA, priority 2003, published 2008).
Values after ≈ are worked out from the molar mass of the structure shown.

System: mitotic arrest
Experiment: cell-based ELICA assay that detects mitotic arrest (Roberge et al. 2000)
Details: cell-based ELICA assay of Roberge et al. (2000) Cancer Res. 60:5052
Source text: As part of a program to discover new antimitotic natural products, extracts of marine invertebrates are screened in a cell-based assay that detects mitotic arrest (Roberge, M. et al. (2000) Cancer Res. 60:5052). […] The compounds described below, their salts, prodrugs and pharmaceutical compositions thereof are all contemplated within the scope of this invention.
Methods suitable for assaying antimitotic activity of compounds of this invention or compounds used as precursors, may be based on any of a variety of known methodologies including microscopic examination of cells to determine if they are arrested in mitosis. Particularly useful methods employ antibodies specific for mitotic cells, such as the method described in the international patent application published under WO 99/15157 or the assays described in WO 01/38339 and in Roberge et al. (2000) Cancer Res. 60:5052. Assays will typically employ cells which regularly divide in culture (e.g. cancer cells). […]
Immunological methods useful for determination of mitotic cells in an assay include any method for determining antibody-antigen binding, including: immunocytochemistry (e.g. immunofluorescence), flow cytometry, immunoblotting, and ELISA, including those described in Vincent, I. et al. [supra]. High throughput testing of samples may be readily achieved by use of the ELISA or the ELICA assays described in WO 01/38339. […]

Compound | IC50, antimitotic activity in the cell-based ELICA assay [µg/mL] | IC50 (read-out: IC50, antimitotic activity in the cell-based ELICA assay) [µg/mL]
ceratamine B [Heterocycle 2] | 10 | –
CNc1nc2ccn(C)c(=O)c(Cc3cc(Br)c(OC)c(Br)c3)c-2n1 [Heterocycle 1, ceratamine A] | – | 10 (≈ 21.4 µM)
